Values of other authors as cited in article PMC11940238, “Ru(II) Complexes with 3,4-Dimethylphenylhydrazine: Exploring In Vitro Anticancer Activity and Protein Affinities” (Biomolecules, 2025).

System: Bovine Serum Albumin (BSA)
Details: cited from earlier work

Cc1ccc(C(C)C)cc1.O=[N+]([O-])c1cccc([NH+]2[NH2+][Ru-]2[Cl])c1 (stereo not shown) [[RuCl(η^6-p-cymene)(3-DNPH)], chlorido(η^6-p-cymene)(3-nitrophenylhydrazine-k^2N,N’)ruthenium(II)]
sign of the change in enthalpy and entropy of binding: positive values
